Patent US11964984B2, “TXNIP-TRX complex inhibitors and methods of using the same” (CITY OF HOPE, priority 2020, dated 2024)

What was measured:
[1] = test system: TXNIP mRNA; experiment: TXNIP mRNA levels in murine MIN6 pancreatic beta cells (RT-PCR); format: cell-based, mouse; details: 25 mM glucose, 72 hours
Method: (§1) FIGS. 4A-4B. […] MIN6 cells were cultured under 25 mM glucose with C30 and C38 at the indicated concentrations for 72 hours. Total RNA was prepared. RT-PCR was performed and data shown are the mean±SEM from triplicates. Statistical analysis was performed for each column vs. HG DMSO using one-way ANOVA: *p<0.0001. […] MIN6 cells were cultured under 25 mM glucose and treated with C30 and C38 at the indicated concentrations for 72 hours. Total RNA was prepared. RT-PCR was performed and data shown are the mean±SEM from triplicates. Statistical analysis was performed for each column vs. HG DMSO using one-way ANOVA: *p<0.0001.
(§2) To ascertain the relevance to pancreatic beta cells, we tested the effects of the lead compounds on key target gene mRNA levels in murine MIN6 pancreatic beta cells.
(§3) RNA extraction and quantitative RT-PCR. RNA was extracted using the Direct-zol™ RNA MiniPrep Plus (Zymo Research). Reverse transcription of RNA samples into cDNA was performed using the GeneAmp RNA PCR Kit (Applied Biosystems), dNTP (from Roche Applied Science), Rnase inhibitor, MULV Reverse Transcriptase and Random hexamers reagent (all from Invitrogen). Diluted cDNA was quantified using real-time PCR performed with Power SYBR Green qPCR MasterMix (Applied Biosystem) and 7500 real-time PCR system (Applied Biosystems). The HPRT1 gene was used as an internal control.

[2] = test system: TNF-α mRNA; experiment: TNF-α mRNA expression in murine MIN6 pancreatic beta cells (RT-PCR); format: cell-based, mouse; details: 25 mM glucose, 72 hours
Method: as §1, §2, §3

[3] = test system: TXNIP mRNA; experiment: TXNIP mRNA in primary human pancreatic islets under 25 mM glucose (RT-PCR); format: cell-based; details: human pancreatic islets (500 IEQ), 2.5 uM, 48 h
Method: FIGS. 12A-12B. […] Human pancreatic islets (500 IEQ) were cultured with PIM(R) (Prodo Labs) medium under 25 mM glucose with 2.5 uM of the indicated compounds for 48 h. Total RNA was collected. RT-PCR was performed in triplicate and data shown are the mean±SEM. Statistical analysis was performed using one-way ANOVA: *p<0.0001. […] Human pancreatic islets (500 IEQ) were cultured with PIM(R) (Prodo Labs) under 25 mM glucose with 2.5 uM of the indicated compounds for 48 h. Total RNA was collected. RT-PCR was performed in triplicate and data shown are the mean+SEM. Statistical analysis was performed using one-way ANOVA: *p<0.0001.
Testing lead compounds in human pancreatic islets. To further explore the effects of the lead compounds as possible therapies in diabetes, we conducted translational studies in primary human pancreatic islets (obtained from the City of Hope islet isolation center).
RNA extraction and quantitative RT-PCR. RNA was extracted using the Direct-zol™ RNA MiniPrep Plus (Zymo Research). […] Diluted cDNA was quantified using real-time PCR performed with Power SYBR Green qPCR MasterMix (Applied Biosystem) and 7500 real-time PCR system (Applied Biosystems). […]

[4] = test system: TXNIP mRNA; experiment: TXNIP expression in murine kidneys after oral dosing (RT-PCR); format: in vivo, C57BL/6 mice; details: 90 mg/kg oral gavage daily for five days, 96 hr after last dose
Method: FIG. 17. Compounds C30 and C38 reduce TXNIP expression in murine kidneys. Twelve male C57BL/6 mice were divided into three groups (vehicle, C30 and C38, 4/group). They received 90 mg/kg dose of compounds daily for five consecutive days. Compounds were given through oral gavage and mice were humanely euthanized 96 hr after the last drug administration. Kidneys were collected for total RNA preparation. RT-PCR was performed in triplicate and data shown are the mean±SEM. Statistical analysis was performed using one-way ANOVA: *p<0.05.
The effects of compounds C30 and C38 at single high dose of 90 mg/kg. Twelve male mice were divided into three groups: 1) Control group (4 mice), 2) compound C30 (4 mice) and 3) compound C38 (4 mice). By oral gavage, animals were given 90 mg/kg of agent daily for 5 consecutive days (vehicle: 30% Solutol in saline). Mice were weighed every day during the treatment period. They were humanely euthanized 96 hours after the last dose. Tissues including the pancreas, liver and kidneys were collected (snap frozen in liquid nitrogen) for RNA extraction. […] Those given compound C30 lost ˜5% of body weight (FIG. 15).
Expression of TXNIP in vivo in treated mice.

[5] = test system: TXNIP mRNA; experiment: TXNIP mRNA in CD14+ monocytes from type 2 diabetic donors (RT-qPCR); format: cell-based, human; details: CD14+ monocytes of T2D donors, 5 uM, 45 hours, ex vivo
Method: FIG. 20. Several lead compounds suppress TXNIP mRNA in T2D monocytes. CD14^+ monocytes were isolated from T2D patient peripheral blood mononuclear cells (PBMCs) and cultured in RPMI 1640 medium with 5 uM of C30 or C38 for 45 hours. Total RNA was collected. RT-PCR was performed in triplicates and data shown are the mean±SEM. Statistical analysis was performed using one-way ANOVA: *p<0.0001.
Anti-inflammatory (protective) effects of lead compounds in monocytes isolated from peripheral blood obtained from type 2 diabetic subjects. In accordance with an approved IRB protocol and our published methods, we isolated CD14+ monocytes from the peripheral blood of two donors with documented type 2 diabetes (T2D). These monocytes were cultured in vitro with vehicle, 5 uM C30 or C38, and levels of human TXNIP transcript assessed by RT-qPCR.

| Compound | TXNIP mRNA levels [1] | TNF-α mRNA expression [2] | TXNIP mRNA [3] | RNA expression level of TXNIP in kidneys [4] | expression of TXNIP [5] |
| --- | --- | --- | --- | --- | --- |
| COc1cc(N2CC[C@@H](c3ccc4ccccc4c3)[C@H](O)C2)nc(N)n1 [Compound C30] | decreased TXNIP mRNA levels | tended to increase TNF-α mRNA expression | target TXNIP mRNA | reduced | can inhibit the expression of TXNIP |
| c1ccc(CCNc2ncnc3c2oc2ccccc23)cc1 [Compound C38] | decreased TXNIP mRNA levels | tended to increase TNF-α mRNA expression | target TXNIP mRNA | reduced | can inhibit the expression of TXNIP |
